The assay addresses human plasma kallikrein (Homo sapiens (Human), UniProt P03952). As to the kind of experiment: Plasma kallikrein activity assay (chromogenic substrate S2302). The format is biochemical. The settings on record: 2 nM kallikrein, 80 μM S2302, 30° C., pH 7.8; Ki by Cheng-Prusoff equation; values given as ranges; read-out: Ki.

Chain of human plasma kallikrein (P03952 whole entry, looked up): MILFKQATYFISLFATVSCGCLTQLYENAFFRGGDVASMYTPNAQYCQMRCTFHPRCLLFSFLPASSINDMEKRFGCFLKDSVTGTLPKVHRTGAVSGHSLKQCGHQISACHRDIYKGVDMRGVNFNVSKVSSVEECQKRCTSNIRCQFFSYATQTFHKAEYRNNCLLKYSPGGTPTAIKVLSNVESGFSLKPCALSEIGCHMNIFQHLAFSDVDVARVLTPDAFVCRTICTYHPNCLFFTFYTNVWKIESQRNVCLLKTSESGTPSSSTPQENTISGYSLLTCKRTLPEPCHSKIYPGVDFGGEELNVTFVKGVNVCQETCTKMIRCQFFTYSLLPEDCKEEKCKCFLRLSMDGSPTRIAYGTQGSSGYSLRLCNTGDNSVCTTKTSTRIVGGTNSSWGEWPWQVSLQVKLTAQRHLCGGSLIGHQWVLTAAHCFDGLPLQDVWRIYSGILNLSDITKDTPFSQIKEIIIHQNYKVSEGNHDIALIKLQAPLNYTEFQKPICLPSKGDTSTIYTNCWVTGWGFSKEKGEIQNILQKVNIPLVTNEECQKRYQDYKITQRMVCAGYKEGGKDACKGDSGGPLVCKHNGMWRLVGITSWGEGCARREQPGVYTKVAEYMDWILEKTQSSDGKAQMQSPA
Chain of human plasma kallikrein (P03952 whole entry partner, looked up): as the sequence (P03952 whole entry, looked up) above
Experimental: Plasma Kallikrein Activity Assay.
The effect of compounds of the invention on human plasma kallikrein activity was determined using the chromogenic substrates (DiaPharma Group, Inc., West Chester, Ohio, USA). In these experiments, 2 nM kallikrein (Enzyme Research Laboratories, South Bend, Ind., USA) was incubated with 80 μM S2302 (H-D-Pro-Phe-Arg-p-nitroaniline) in the absence or presence of increasing concentrations of compounds of the invention in a final volume of 200 μL Tris-HCl buffer (200 mM NaCl; mM CaCl2; 50 mM Tris-HCl, pH 7.8).
Data were analyzed using SigmaPlot software (Systat Software, Inc., San Jose, Calif., USA) (Four Parameter Logistic Curve).

Broadly, the Ki is a dissociation constant, usually derived from enzyme kinetics or from competition with a known ligand. Take `NCc1cccc(-n2nc(C(F)(F)F)cc2C(=O)Nc2cc(C(CCC3CC3)N3CCCCC3=O)ccc2F)c1` (single isomer, unassigned; (+)) [261k, (+)-1-(3-(aminomethyl)phenyl)-N-(5-(3-cyclopropyl-1-(2-oxopiperidin-1-yl)propyl)-2-fluorophenyl)-3-(trifluoromethyl)-1H-pyrazole-5-carboxamide]: the Ki was in the range of 0.1 to 50 nM.
As for `Cc1cc(C(N)(CCC2CC2)c2ccc(F)c(NC(=O)c3cc(C(F)(F)F)nn3-c3cccc(CN)c3)c2)ccn1` (single isomer, unassigned; (+)) [266j, (+)-N-(5-(1-amino-3-cyclopropyl-1-(2-methylpyridin-4-yl)propyl)-2-fluorophenyl)-1-(3-(aminomethyl)phenyl)-3-(trifluoromethyl)-1H-pyrazole-5-carboxamide], the Ki fell in the range of 0.1 to 50 nM.
For `Nc1nccc2ccc(-n3nc(C(=O)Nc4cc(C(N)(CCC5CC5)c5ccncc5)ccc4F)cc3C(F)(F)F)cc12` (single isomer, unassigned; (+)) [268g, (+)-N-(5-(1-amino-3-cyclopropyl-1-(pyridin-4-yl)propyl)-2-fluorophenyl)-1-(1-aminoisoquinolin-7-yl)-5-(trifluoromethyl)-1H-pyrazole-3-carboxamide], the inhibition constant (Ki) fell in the range of 50 to 100 nM.
As for `NCc1cccc(-n2nc(C(F)(F)F)cc2C(=O)Nc2cccc(C(OCC3CC3)c3ccccn3)c2)c1` (single isomer, unassigned; (-)) [43g, (−)-1-(3-(aminomethyl)phenyl)-N-(3-((cyclopropylmethoxy)(pyridin-2-yl)methyl)-phenyl)-3-(trifluoromethyl)-1H-pyrazole-5-carboxamide], the figure is 0.1 to 50 nM.
With `NCc1cccc(-n2nc(C(F)(F)F)cc2C(=O)Nc2cccc(C(OCC3CC3)c3cccnc3)c2)c1` (single isomer, unassigned; (-)) [44e, (−)-1-(3-(aminomethyl)phenyl)-N-(3-((cyclopropylmethoxy)(pyridin-3-yl)methyl)phenyl)-3-(trifluoromethyl)-1H-pyrazole-5-carboxamide] the figure was 0.1 to 50 nM.
In the case of `NCc1cccc(-n2nc(C(F)(F)F)cc2C(=O)Nc2cccc(C(O)(CCC3CC3)c3ccccc3)c2)c1` (single isomer, unassigned; (-)) [46i, (−)-1-(3-(aminomethyl)phenyl)-N-(3-(3-cyclopropyl-1-hydroxy-1-phenylpropyl)phenyl)-3-(trifluoromethyl)-1H-pyrazole-5-carboxamide], the Ki lay in the range of 0.1 to 50 nM.
As for `NCc1cccc(-n2nc(C(F)(F)F)cc2C(=O)Nc2cccc(C(O)(CCC3CC3)c3cccnc3)c2)c1` (single isomer, unassigned; (-)) [47g, (−)-1-(3-(aminomethyl)phenyl)-N-(3-(3-cyclopropyl-1-hydroxy-1-(pyridin-3-yl)propyl)phenyl)-3-(trifluoromethyl)-1H-pyrazole-5-carboxamide], the figure is 0.1 to 50 nM; as for `NCc1cccc(-n2nc(C(F)(F)F)cc2C(=O)Nc2cccc(C(OCC3CC3)c3cccc(N)c3)c2)c1` (single isomer, unassigned; (-)) [64a, (−)-1-(3-(aminomethyl)phenyl)-N-(3-((3-aminophenyl)(cyclopropyl-methoxy)methyl)phenyl)-3-(trifluoromethyl)-1H-pyrazole-5-carboxamide], 0.1 to 50 nM; as for `NCc1cccc(-n2nc(C(F)(F)F)cc2C(=O)Nc2cccc(C(OCC3CC3)c3ccccc3)c2)c1` (single isomer, unassigned; (-)) [165e, (−)-1-(3-(aminomethyl)phenyl)-N-(3-((cyclopropylmethoxy)(phenyl)methyl)phenyl)-3-(trifluoromethyl)-1H-pyrazole-5-carboxamide], 0.1 to 50 nM.
For the compound `NCc1cccc(-n2nc(C(F)(F)F)cc2C(=O)Nc2cc(C(c3ccccc3)N(CC3CC3)CC3CC3)ccc2F)c1` (single isomer, unassigned; (-)) [206d, (−)-1-(3-(aminomethyl)phenyl)-N-(5-((bis(cyclopropylmethyl)amino)(phenyl)methyl)-2-fluorophenyl)-3-(trifluoromethyl)-1H pyrazole-5-carboxamide], the Ki lay in the range of 0.1 to 50 nM.
`NCc1cccc(-n2nc(C(F)(F)F)cc2C(=O)Nc2cc(C(N)(CCC3CC3)c3ccncc3)ccc2F)c1` (single isomer, unassigned; (-)) [217d, (−)-N-(5-(1-amino-3-cyclopropyl-1-(pyridin-4-yl)propyl)-2-fluorophenyl)-1-(3-(aminomethyl)phenyl)-3-(trifluoromethyl)-1H-pyrazole-5-carboxamide]: the inhibition constant Ki was in the range of 50 to 100 nM.
For `NCc1cccc(-n2nc(C(F)(F)F)cc2C(=O)Nc2cc(C(N)(CCC3CC3)c3cccc(C(N)=O)c3)ccc2F)c1` (single isomer, unassigned; (-)) [225a, (−)-N-(5-(1-amino-1-(3-carbamoylphenyl)-3-cyclopropylpropyl)-2-fluorophenyl)-1-(3-(aminomethyl)phenyl)-3-(trifluoromethyl)-1H-pyrazole-5-carboxamide], the Ki lay within 0.1 to 50 nM.
With `N=C(N)c1cccc(-n2nc(C(F)(F)F)cc2C(=O)Nc2cc(C(NCC3CC3)c3ccccc3)ccc2F)c1` (single isomer, unassigned; (-)) [227d, (−)-1-(3-carbamimidoylphenyl)-N-(5-((cyclopropylmethylamino)(phenyl)methyl)-2-fluorophenyl)-3-(trifluoromethyl)-1H-pyrazole-5-carboxamide] the figure was 0.1 to 50 nM; with `N#Cc1cc(C(=O)Nc2cc(C(NCC3CC3)c3ccccc3)ccc2F)n(-c2cccc(CN)c2)n1` (single isomer, unassigned; (-)) [240b, (−)-1-(3-(aminomethyl)phenyl)-3-cyano-N-(5-((cyclopropylmethylamino)(phenyl)methyl)-2-fluorophenyl)-1H-pyrazole-5-carboxamide], 0.1 to 50 nM.
With `CC(C)(C)C(=O)NC(CCC1CC1)(c1cccnc1)c1ccc(F)c(NC(=O)c2cc(C(F)(F)F)nn2-c2cccc(CN)c2)c1` (single isomer, unassigned; (-)) [244g, (−)-1-(3-(aminomethyl)phenyl)-N-(5-(3-cyclopropyl-1-pivalamido-1-(pyridin-3-yl)propyl)-2-fluorophenyl)-3-(trifluoromethyl)-1H-pyrazole-5-carboxamide], the Ki lay in the range of 0.1 to 50 nM.
With `CC(=O)NC(CCC1CC1)(c1cccnc1)c1ccc(F)c(NC(=O)c2cc(C(F)(F)F)nn2-c2cccc(CN)c2)c1` (single isomer, unassigned; (-)) [244h, (−)-N-(5-(1-acetamido-3-cyclopropyl-1-(pyridin-3-yl)propyl)-2-fluorophenyl)-1-(3-(aminomethyl)phenyl)-3-(trifluoromethyl)-1H-pyrazole-5-carboxamide] the figure was 0.1 to 50 nM; with `CCC(=O)NC(CCC1CC1)(c1cccnc1)c1ccc(F)c(NC(=O)c2cc(C(F)(F)F)nn2-c2cccc(CN)c2)c1` (single isomer, unassigned; (-)) [244i, (−)-1-(3-(aminomethyl)phenyl)-N-(5-(3-cyclopropyl-1-propionamido-1-(pyridin-3-yl)propyl)-2-fluorophenyl)-3-(trifluoromethyl)-1H-pyrazole-5-carboxamide], 0.1 to 50 nM.

Source of the values: patent publication US11203574B2 (BioCryst Pharmaceuticals, Inc., priority 2014, dated 2021).
